Assay results reported in the supplement of paper PMC10307832.

What was measured:
Assay in all cases: relative viability (nuclei count vs DMSO), 5 days (fraction); higher = more cells survive
[1] = compound: C1=CC=C2C(=C1)N=C(S2)C(C#N)C3=NC(=NC=C3)NCCC4=CN=CC=C4 + CS(=O)(=O)N1CCN(Cc2cc3nc(-c4cccc5[nH]ncc45)nc(N4CCOCC4)c3s2)CC1 [Pictilisib] (partner 1 µM)
Method in brief: (§1)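 Relative viability was taken as the ratio of nuclei in treated wells to nuclei in vehicle wells. Lung cancer cell lines in 1536-well plates received compounds by pin tool one day after seeding, either one drug alone or a fixed anchor-drug dose plus five library-drug doses (not always all listed) in √10 steps. Nuclei were counted on 4× images after 5 days of treatment, and values are medians of duplicate plates.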

NVP-TAE684 + Lapatinib = compound: COc1cc(N2CCC(N3CCN(C)CC3)CC2)ccc1Nc1ncc(Cl)c(Nc2ccccc2S(=O)(=O)C(C)C)n1 [NVP-TAE684] + CS(=O)(=O)CCNCc1ccc(-c2ccc3ncnc(Nc4ccc(OCc5cccc(F)c5)c(Cl)c4)c3c2)o1 [Lapatinib] (partner 2 µM)
Method in brief: as §1

Vandetanib + Crizotinib = compound: COc1cc2/c(=N/c3ccc(Br)cc3F)nc[nH]c2cc1OCC1CCN(C)CC1 [Vandetanib] + C[C@@H](Oc1cc(-c2cnn(C3CCNCC3)c2)cnc1N)c1c(Cl)ccc(F)c1Cl [Crizotinib] (partner 1 µM)
Method in brief: as §1

Vandetanib + Decitabine = compound: COc1cc2/c(=N/c3ccc(Br)cc3F)nc[nH]c2cc1OCC1CCN(C)CC1 [Vandetanib] + Nc1ncn([C@H]2C[C@H](O)[C@@H](CO)O2)c(=O)n1 [Decitabine] (partner 2 µM)
Method in brief: as §1

Row | Cell Line | relative viability ([1]; first compound 0.005 µM) | relative viability ([1]; first compound 0.01581 µM) | relative viability ([1]; first compound 0.05 µM) | relative viability ([1]; first compound 0.1581 µM) | relative viability ([1]; first compound 0.5 µM) | relative viability (NVP-TAE684 + Lapatinib; first compound 0.2 µM) | relative viability (NVP-TAE684 + Lapatinib; first compound 0.6325 µM) | relative viability (NVP-TAE684 + Lapatinib; first compound 2 µM) | relative viability (Vandetanib + Crizotinib; first compound 0.02 µM) | relative viability (Vandetanib + Crizotinib; first compound 0.06325 µM) | relative viability (Vandetanib + Crizotinib; first compound 0.2 µM) | relative viability (Vandetanib + Crizotinib; first compound 0.6325 µM) | relative viability (Vandetanib + Crizotinib; first compound 2 µM) | relative viability (Vandetanib + Decitabine; first compound 0.02 µM) | relative viability (Vandetanib + Decitabine; first compound 0.06325 µM) | relative viability (Vandetanib + Decitabine; first compound 0.2 µM) | relative viability (Vandetanib + Decitabine; first compound 0.6325 µM) | relative viability (Vandetanib + Decitabine; first compound 2 µM)
1 | NCI-H322M | 0.482 | 0.477 | 0.492 | 0.552 | 0.486 | 0.637 | 0.609 | 0.404 | 0.899 | 0.952 | 0.937 | 0.88 | 0.897 | 0.688 | 0.658 | 0.763 | 0.718 | 0.577
2 | SK-MES-1 | 0.365 | 0.454 | 0.277 | 0.352 | 0.374 | 0.539 | 0.453 | 0.472 | 1.01 | 0.902 | 0.938 | 0.926 | 0.875 | 0.419 | 0.38 | 0.411 | 0.276 | 0.252
3 | NCI-H1355 | 0.535 | 0.388 | 0.365 | 0.503 | 0.439 | 1.18 | 0.855 | 0.636 | 1.03 | 0.976 | 0.637 | 0.996 | 1.04 | 0.351 | 0.357 | 0.369 | 0.339 | 0.363
4 | NCI-H2126 | 0.499 | 0.493 | 0.417 | 0.526 | 0.487 | 0.755 | 0.719 | 0.55 | 0.983 | 0.964 | 0.99 | 0.97 | 0.959 | 0.537 | 0.551 | 0.592 | 0.576 | 0.552
5 | NCI-H520 | 0.178 | 0.328 | 0.307 | 0.362 | 0.256 | 0.761 | 0.884 | 0.454 | 0.923 | 0.894 | 0.859 | 0.772 | 0.655 | 0.496 | 0.483 | 0.429 | 0.495 | 0.502
6 | NCI-H1755 | 0.392 | 0.35 | 0.379 | 0.576 | 0.384 | 0.996 | 1.06 | 0.891 | 0.853 | 0.843 | 0.789 | 0.85 | 0.829 | 0.71 | 0.678 | 0.709 | 0.763 | 0.623
7 | NCI-H358 | 0.347 | 0.295 | 0.319 | 0.371 | 0.342 | 0.397 | 0.328 | 0.256 | 0.659 | 0.636 | 0.137 | 0.397 | 0.321 | 0.181 | 0.203 | 0.208 | 0.232 | 0.19
8 | NCI-H1650 | 0.488 | 0.529 | 0.559 | 0.723 | 0.471 | 0.958 | 0.684 | 0.347 | 0.943 | 0.806 |  | 0.736 | 0.581 | 0.361 | 0.451 | 0.413 | 0.502 | 0.403
9 | NCI-H2347 | 0.474 | 0.695 | 0.659 | 0.756 | 0.609 | 1 | 0.903 | 0.955 | 0.665 | 0.56 | 0.737 | 0.789 | 0.718 | 0.595 | 0.525 | 0.685 | 0.619 | 0.568
10 | HCC-15 | 0.733 | 0.74 | 0.72 | 0.855 | 0.685 | 0.914 | 0.893 | 0.808 | 0.837 | 0.793 | 0.855 | 0.826 | 0.821 | 0.662 | 0.516 | 0.562 | 0.616 | 0.616
11 | NCI-H23 |  | 0.464 | 0.455 | 0.508 | 0.511 | 1.15 | 1.05 | 0.512 | 0.64 | 0.573 | 0.514 | 0.527 | 0.451 | 0.358 | 0.328 | 0.346 | 0.293 | 0.325
12 | LC-2-ad | 0.437 | 0.524 | 0.487 | 0.556 | 0.426 | 0.988 | 0.921 | 0.455 | 0.468 | 0.46 | 0.493 | 0.441 | 0.414 | 0.707 | 0.729 | 0.89 | 0.836 | 0.616
13 | LCLC-97TM1 | 0.215 | 0.179 | 0.156 | 0.181 | 0.236 | 1.51 | 0.547 | 0.287 | 0.32 | 0.342 | 0.232 | 0.459 | 0.441 | 0.223 | 0.22 | 0.209 | 0.264 | 0.234
14 | HOP-62 | 0.585 | 0.672 | 0.646 | 0.945 | 0.775 | 0.882 | 1 | 1.08 | 1.03 | 0.919 | 0.695 | 1.01 | 1.11 | 0.244 | 0.267 | 0.208 | 0.202 | 0.249
15 | NCI-H2085 | 0.43 | 0.43 | 0.39 | 0.483 | 0.388 | 0.788 | 0.632 | 0.648 | 0.807 | 0.841 | 0.932 | 0.937 | 0.875 | 0.536 | 0.522 | 0.525 | 0.471 | 0.574
16 | NCI-H2087 | 0.873 | 0.856 | 0.883 | 1.04 | 0.92 | 1.36 | 1.02 | 0.986 | 0.785 | 0.949 | 0.835 | 0.88 | 0.904 | 0.364 | 0.379 | 0.281 | 0.286 | 0.233
17 | COR-L 105 | 0.345 | 0.367 | 0.384 | 0.516 | 0.428 | 0.376 | 0.319 | 0.235 | 0.851 | 0.839 | 0.729 | 0.731 | 0.248 | 0.683 | 0.574 | 0.622 | 0.561 | 0.505
18 | A-427 | 0.723 | 0.664 | 0.726 | 0.844 | 0.878 | 1.12 |  | 0.922 | 0.895 | 0.88 | 0.966 | 0.874 | 0.879 | 0.58 | 0.59 | 0.541 | 0.517 | 0.574
19 | NCI-H1975 | 0.262 | 0.28 | 0.284 | 0.307 | 0.255 | 0.734 | 0.791 | 0.318 | 0.887 | 0.943 | 0.922 | 0.994 | 0.852 | 0.399 | 0.401 | 0.422 | 0.419 | 0.387
20 | NCI-H1993 | 0.862 | 0.963 | 0.848 | 0.64 | 0.745 |  | 0.77 | 0.7 | 0.924 | 0.77 | 0.861 | 0.77 | 0.72 | 0.674 | 0.645 | 0.628 | 0.637 | 0.541
21 | NCI-H2023 | 0.283 | 0.205 | 0.209 | 0.265 | 0.239 | 1.1 | 0.622 | 0.193 | 0.661 | 0.556 | 0.624 | 0.49 | 0.499 | 0.235 | 0.183 | 0.225 | 0.253 | 0.204
22 | 201T | 0.7 | 0.69 | 0.621 | 0.662 | 0.698 | 1.09 | 1.05 | 0.928 | 1 | 1.03 | 0.978 | 0.95 | 0.969 | 0.831 | 0.828 | 0.859 | 0.85 | 0.797
23 | LK-2 |  |  | 0.531 | 0.597 | 0.685 | 1.01 | 0.721 | 0.69 | 0.217 | 0.222 | 0.225 | 0.219 | 0.233 | 0.307 | 0.293 | 0.317 | 0.315 | 0.271
24 | SW 1573 | 0.373 | 0.542 | 0.505 | 0.497 | 0.497 | 1.16 | 1.12 | 1.13 | 0.896 | 0.704 | 0.7 | 0.815 | 0.849 | 0.467 | 0.481 | 0.594 | 0.508 | 0.393
25 | NCI-H647 |  | 0.301 | 0.391 | 0.556 | 0.452 | 1.34 | 1.02 | 0.686 | 1.06 | 1.07 | 1.1 | 1.06 | 0.981 | 0.356 | 0.396 | 0.349 | 0.35 | 0.41
26 | HCC-78 | 0.26 | 0.167 | 0.174 | 0.25 | 0.14 | 1.26 | 1.3 | 0.255 | 0.318 | 0.352 | 0.328 | 0.331 | 0.257 | 0.715 | 0.632 | 0.683 | 0.689 | 0.643
27 | NCI-H727 | 0.553 | 0.304 | 0.299 | 0.473 | 0.37 | 0.917 | 0.695 | 0.346 | 0.821 | 0.885 | 0.786 | 0.65 | 0.687 | 0.827 | 0.798 | 0.938 | 0.885 | 0.492
28 | BEN | 0.59 | 0.509 | 0.584 | 0.576 | 0.561 | 0.579 | 0.552 | 0.62 | 0.809 | 0.807 | 0.89 | 0.862 | 0.785 | 0.651 | 0.7 | 0.625 | 0.725 | 0.446
29 | NCI-H650 | 0.728 | 0.845 | 0.804 | 0.934 | 0.901 |  | 0.776 | 0.706 | 0.709 | 0.703 | 0.758 | 0.605 | 0.724 | 0.354 | 0.324 | 0.322 | 0.351 | 0.329
30 | NCI-H1915 | 0.933 | 0.929 | 0.923 | 1.1 | 0.879 | 1.02 | 1.01 | 0.948 | 0.842 | 0.889 | 0.933 | 0.857 | 0.892 | 0.245 | 0.255 | 0.274 | 0.263 | 0.248
